Laboratory results from patent publication US20240002391A1, “4-ALKOXYPYRROLO[2,1-F][1,2,4]TRIAZINES AND PREPARATION AND USES THEREOF” (BioSplice Therapeutics, Inc., priority 2022, published 2024).
pIC50: −log10 of the molar value.

molecular target: recombinant DYRK1A kinase (Homo sapiens (Human), UniProt Q13627); test: DYRK1A kinase assay (Ser/Thr 18 peptide Z-lyte FRET); format: biochemical; conditions: DYRK1A kinase activity, Z-lyte Ser/Thr 18 peptide, 15 μM ATP; method text calls the value IC50; read-out: EC50 (the source's name)
Procedure: Representative compounds were screened using the assay procedure for DYRK1A kinase activity as described below.
Each compound was dissolved in DMSO as a 10 mM stock and used to prepare compound source plates. Serial dilution (1:3, 11-point dose-response curves from 10 μM to 0.00016 μM) and compound transfer was performed using the ECHO 550 (Labcyte, Sunnyvale, CA) into 1536-well black-walled round bottom plates (Coming).
The DYRK1A kinase assay was run using the Ser/Thr 18 peptide Z-lyte assay kit according to manufacturer's instructions (Life Technologies-a Division of Thermo-Fisher). This is a non-radioactive assay using fluorescence resonance energy transfer (FRET) between coumarin and fluorescein to detect kinase activity which is represented as a ratio of coumarin emission/fluorescein emission.
Briefly, recombinant DYRK1A kinase, ATP and Ser/Thr peptide 18 were prepared in 1X Kinase buffer to final concentrations of 0.25 μg/mL, 15 μM, and 4 μM respectively. The mixture was allowed to incubate with the representative compounds for one hour at room temperature. All reactions were performed in duplicate. Unphosphorylated (“0% Control”) and phosphorylated (“100% control”) forms of Ser/Thr 18 served as control reactions. Additionally, an 11-point dose-response curve of Staurosporine (luM top) was run to serve as a positive compound control.
After incubation, Development Reagent A was diluted in Development Buffer then added to the reaction and allowed to further incubate for one hour at room temperature. The plate was read at Ex 400 Em 455 to detect the coumarin signal and Ex 400 Em 520 to measure the signal (EnVision Multilabel Plate Reader, PerkinElmer).
The Emission ratio (Em) was calculated as a ratio of the coumarin (C) emission signal (at 445 nm)/Fluorescein (F) emission signal (at 520 nm). The percent phosphorylation was then calculated using the following formula: [1−((Em ratio X F100%)-C100%)/((C0%-C100%) +(Em ratio X (F100%−F0%)))]. Dose-response curves were generated, and inhibitory concentration (IC50) values were calculated using non-linear regression curve fit in the Dotmatics' Studies Software (Bishops Stortford, UK).

SMILES | pIC50
COc1nc(NC2CCN(CC(F)F)CC2)nn2ccc(-c3ccc4nccn4c3)c12 [Compound 61, N-(1-(2,2-Difluoroethyl)piperidin-4-yl)-5-(imidazo[1,2-a]pyridin-6-yl)-4-methoxypyrrolo[2,1-f][1,2,4]triazin-2-amine] | 8.31
COc1nc(NC2CCN(C(C)=O)CC2)nn2ccc(-c3ccc4nccn4c3)c12 [Compound 63, 1-(4-((5-(Imidazo[1,2-a]pyridin-6-yl)-4-methoxypyrrolo[2,1-f][1,2,4]triazin-2-yl)amino)piperidin-1-yl)ethan-1-one] | 8.34
COc1nc(NC2CC3(COC3)C2)nn2ccc(-c3ccc4nccn4c3)c12 [Compound 74, 5-(Imidazo[1,2-a]pyridin-6-yl)-4-methoxy-N-(2-oxaspiro[3.3]heptan-6-yl)pyrrolo[2,1-f][1,2,4]triazin-2-amine] | 8.28
CCOc1nc(N[C@H]2C[C@@H](OCCO)C2)nn2ccc(-c3ccn4nccc4c3)c12 [Compound 91, 2-(cis-3-((4-Ethoxy-5-(pyrazolo[1,5-a]pyridin-5-yl)pyrrolo[2,1-f][1,2,4]triazin-2-yl)amino)cyclobutoxy)ethan-1-ol] | 8.80
COc1nc(NC2CC3(C2)CN(C(=O)OC(C)(C)C)C3)nn2ccc(-c3ccn4nccc4c3)c12 [Compound 92, tert-Butyl 6-((4-methoxy-5-(pyrazolo[1,5-a]pyridin-5-yl)pyrrolo[2,1-f][1,2,4]triazin-2-yl)amino)-2-azaspiro[3.3]heptane-2-carboxylate] | 7.20
COc1nc(N[C@H](C)c2ccccn2)nn2ccc(-c3ccn4nccc4c3)c12 [Compound 93, (R)-4-Methoxy-5-(pyrazolo[1,5-a]pyridin-5-yl)-N-(1-(pyridin-2-yl)ethyl)pyrrolo[2,1-f][1,2,4]triazin-2-amine] | 6.71
COc1nc(N[C@H]2C[C@@](C)(N)C2)nn2ccc(-c3ccn4nccc4c3)c12 [Compound 95, cis-N1-(4-Methoxy-5-(pyrazolo[1,5-a]pyridin-5-yl)pyrrolo[2,1-f][1,2,4]triazin-2-yl)-3-methylcyclobutane-1,3-diamine] | 8.09
COc1nc(N[C@H]2C[C@](C)(NC(C)=O)C2)nn2ccc(-c3ccn4nccc4c3)c12 [Compound 96, N-(trans-3-((4-Methoxy-5-(pyrazolo[1,5-a]pyridin-5-yl)pyrrolo[2,1-f][1,2,4]triazin-2-yl)amino)-1-methylcyclobutyl)acetamide] | 9.00

Further compounds by rising pIC50, results first:

pIC50 | SMILES
7.25 | COc1nc(N[C@@H]2[C@@H]3COC[C@@H]32)nn2ccc(-c3ccn4nccc4c3)c12 [Compound 80, N-((1R,5S,6s)-3-Oxabicyclo[3.1.0]hexan-6-yl)-4-methoxy-5-(pyrazolo[1,5-a]pyridin-5-yl)pyrrolo[2,1-f][1,2,4]triazin-2-amine]
8.07 | COc1nc(NC2CCN(C3COC3)CC2)nn2ccc(-c3ccc4nccn4c3)c12 [Compound 62, 5-(Imidazo[1,2-a]pyridin-6-yl)-4-methoxy-N-(1-(oxetan-3-yl)piperidin-4-yl)pyrrolo[2,1-f][1,2,4]triazin-2-amine]
8.25 | COc1nc(N[C@@H]2CCN(C)C[C@@H]2F)nn2ccc(-c3ccc4nccn4c3)c12 [Compound 67, N-((3S,4R)-3-Fluoro-1-methylpiperidin-4-yl)-5-(imidazo[1,2-a]pyridin-6-yl)-4-methoxypyrrolo[2,1-f][1,2,4]triazin-2-amine]
8.39 | COc1nc(N[C@H]2C[C@](C)(N)C2)nn2ccc(-c3ccn4nccc4c3)c12 [Compound 94, trans-N1-(4-Methoxy-5-(pyrazolo[1,5-a]pyridin-5-yl)pyrrolo[2,1-f][1,2,4]triazin-2-yl)-3-methylcyclobutane-1,3-diamine]
8.96 | COc1nc(N[C@H]2C[C@@](C)(NC(C)=O)C2)nn2ccc(-c3ccn4nccc4c3)c12 [Compound 97, N-(cis-3-((4-Methoxy-5-(pyrazolo[1,5-a]pyridin-5-yl)pyrrolo[2,1-f][1,2,4]triazin-2-yl)amino)-1-methylcyclobutyl)acetamide]
